Test results published in the supplement of paper PMC10307832.

Legend:
Assay in all cases: relative viability (nuclei count vs DMSO), 5 days (fraction); higher = more cells survive
HCC-366 = test system: HCC-366
Method in brief: (§1)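 For relative viability, nuclei counts in treated wells were divided by those in vehicle wells. Lung cancer cell lines had been pin-tool dosed in 1536-well plates the day after seeding and cultured for 5 days, then fixed and stained in one step (final 0.05% Triton X-100, 1% formaldehyde, 1 ug/ml Hoechst) and imaged at 4×. Doses were one drug alone or a fixed anchor-drug dose plus five library-drug doses (not always all listed) in √10 steps, and values are duplicate-plate medians.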

NCI-H2342 = test system: NCI-H2342
Method in brief: as §1

NCI-H1734 = test system: NCI-H1734
Method in brief: as §1

CAL-12T = test system: CAL-12T
Method in brief: as §1

NCI-H1563 = test system: NCI-H1563
Method in brief: as §1

NCI-H1650 = test system: NCI-H1650
Method in brief: as §1

NCI-H1651 = test system: NCI-H1651
Method in brief: as §1

NCI-H460 = test system: NCI-H460
Method in brief: as §1

NCI-H1395 = test system: NCI-H1395
Method in brief: as §1

NCI-H838 = test system: NCI-H838
Method in brief: as §1

LU99A = test system: LU99A
Method in brief: as §1

LOU-NH91 = test system: LOU-NH91
Method in brief: as §1

NCI-H1355 = test system: NCI-H1355
Method in brief: as §1

NCI-H2023 = test system: NCI-H2023
Method in brief: as §1

BEN = test system: BEN
Method in brief: as §1

HCC-44 = test system: HCC-44
Method in brief: as §1

NCI-H1437 = test system: NCI-H1437
Method in brief: as §1

NCI-H1975 = test system: NCI-H1975
Method in brief: as §1

NCI-H1755 = test system: NCI-H1755
Method in brief: as §1

NCI-H441 = test system: NCI-H441
Method in brief: as §1

NCI-H358 = test system: NCI-H358
Method in brief: as §1

EKVX = test system: EKVX
Method in brief: as §1

NCI-H2085 = test system: NCI-H2085
Method in brief: as §1

`NC(=O)Nc1cc(-c2cccc(F)c2)sc1C(=O)N[C@H]1CCCNC1` [AZD7762] + Nc1nc2[nH]cc(CCc3ccc(C(=O)N[C@@H](CCC(=O)O)C(=O)O)cc3)c2c(=O)[nH]1 [Pemetrexed] (partner 0.2 µM) was tested, and the relative viability (HCC-366; first compound 0.01 µM) was 0.195, the relative viability (HCC-366; first compound 0.03162 µM) was 0.11 and the relative viability (HCC-366; first compound 0.1 µM) was 0.0981. For the same compound, the relative viability (HCC-366; first compound 0.3162 µM) was 0.0668, the relative viability (HCC-366; first compound 1 µM) was 0.0716 and the relative viability (NCI-H2342; first compound 0.01 µM) was 0.784. For the same compound, the relative viability (NCI-H2342; first compound 0.03162 µM) was 0.797, the relative viability (NCI-H2342; first compound 0.1 µM) was 0.78 and the relative viability (NCI-H2342; first compound 0.3162 µM) was 0.755. It also gave a relative viability (NCI-H2342; first compound 1 µM) of 0.669, a relative viability (NCI-H1734; first compound 0.01 µM) of 0.398 and a relative viability (NCI-H1734; first compound 0.03162 µM) of 0.353. It also gave a relative viability (NCI-H1734; first compound 0.1 µM) of 0.334, a relative viability (NCI-H1734; first compound 0.3162 µM) of 0.303 and a relative viability (NCI-H1734; first compound 1 µM) of 0.28. The relative viability (CAL-12T; first compound 0.01 µM) was 1.16, the relative viability (CAL-12T; first compound 0.03162 µM) was 0.981 and the relative viability (CAL-12T; first compound 0.1 µM) was 1.09. For the same compound, the relative viability (CAL-12T; first compound 0.3162 µM) was 0.612, the relative viability (CAL-12T; first compound 1 µM) was 0.226 and the relative viability (NCI-H1563; first compound 0.01 µM) was 0.853. It also gave a relative viability (NCI-H1563; first compound 0.03162 µM) of 0.997, a relative viability (NCI-H1563; first compound 0.1 µM) of 0.84 and a relative viability (NCI-H1563; first compound 0.3162 µM) of 0.693. It also gave a relative viability (NCI-H1563; first compound 1 µM) of 0.765, a relative viability (NCI-H1650; first compound 0.01 µM) of 0.333 and a relative viability (NCI-H1650; first compound 0.03162 µM) of 0.331. It also gave a relative viability (NCI-H1650; first compound 0.1 µM) of 0.296, a relative viability (NCI-H1650; first compound 0.3162 µM) of 0.252 and a relative viability (NCI-H1650; first compound 1 µM) of 0.19. It also gave a relative viability (NCI-H1651; first compound 0.01 µM) of 0.624, a relative viability (NCI-H1651; first compound 0.03162 µM) of 0.688 and a relative viability (NCI-H1651; first compound 0.1 µM) of 0.558. For the same compound, the relative viability (NCI-H1651; first compound 0.3162 µM) was 0.385, the relative viability (NCI-H1651; first compound 1 µM) was 0.259 and the relative viability (NCI-H460; first compound 0.01 µM) was 0.0576. The relative viability (NCI-H460; first compound 0.03162 µM) was 0.0605, the relative viability (NCI-H460; first compound 0.1 µM) was 0.0567 and the relative viability (NCI-H460; first compound 0.3162 µM) was 0.0462. It also gave a relative viability (NCI-H460; first compound 1 µM) of 0.0366, a relative viability (NCI-H1395; first compound 0.01 µM) of 0.847 and a relative viability (NCI-H1395; first compound 0.03162 µM) of 0.768. It also gave a relative viability (NCI-H1395; first compound 0.1 µM) of 0.641, a relative viability (NCI-H1395; first compound 0.3162 µM) of 0.401 and a relative viability (NCI-H1395; first compound 1 µM) of 0.306. It also gave a relative viability (NCI-H838; first compound 0.01 µM) of 0.25, a relative viability (NCI-H838; first compound 0.03162 µM) of 0.192 and a relative viability (NCI-H838; first compound 0.1 µM) of 0.177. The relative viability (NCI-H838; first compound 0.3162 µM) was 0.177, the relative viability (NCI-H838; first compound 1 µM) was 0.167 and the relative viability (LU99A; first compound 0.01 µM) was 0.204. For the same compound, the relative viability (LU99A; first compound 0.03162 µM) was 0.165, the relative viability (LU99A; first compound 0.1 µM) was 0.142 and the relative viability (LU99A; first compound 0.3162 µM) was 0.151. For the same compound, the relative viability (LU99A; first compound 1 µM) was 0.109, the relative viability (LOU-NH91; first compound 0.01 µM) was 0.437 and the relative viability (LOU-NH91; first compound 0.03162 µM) was 0.306. The relative viability (LOU-NH91; first compound 0.1 µM) was 0.335, the relative viability (LOU-NH91; first compound 0.3162 µM) was 0.359 and the relative viability (LOU-NH91; first compound 1 µM) was 0.349. For the same compound, the relative viability (NCI-H1355; first compound 0.01 µM) was 1.07, the relative viability (NCI-H1355; first compound 0.03162 µM) was 1.03 and the relative viability (NCI-H1355; first compound 0.1 µM) was 1.08. The relative viability (NCI-H1355; first compound 0.3162 µM) was 0.708, the relative viability (NCI-H1355; first compound 1 µM) was 0.709 and the relative viability (NCI-H2023; first compound 0.01 µM) was 0.211. The relative viability (NCI-H2023; first compound 0.03162 µM) was 0.156, the relative viability (NCI-H2023; first compound 0.1 µM) was 0.112 and the relative viability (NCI-H2023; first compound 0.3162 µM) was 0.124. It also gave a relative viability (NCI-H2023; first compound 1 µM) of 0.0879, a relative viability (BEN; first compound 0.01 µM) of 0.804 and a relative viability (BEN; first compound 0.03162 µM) of 0.902. It also gave a relative viability (BEN; first compound 0.1 µM) of 0.757, a relative viability (BEN; first compound 0.3162 µM) of 0.809 and a relative viability (BEN; first compound 1 µM) of 0.606. It also gave a relative viability (HCC-44; first compound 0.01 µM) of 0.608, a relative viability (HCC-44; first compound 0.03162 µM) of 0.548 and a relative viability (HCC-44; first compound 0.1 µM) of 0.534. For the same compound, the relative viability (HCC-44; first compound 0.3162 µM) was 0.451, the relative viability (HCC-44; first compound 1 µM) was 0.358 and the relative viability (NCI-H1437; first compound 0.01 µM) was 0.298. The relative viability (NCI-H1437; first compound 0.03162 µM) was 0.261, the relative viability (NCI-H1437; first compound 0.1 µM) was 0.229 and the relative viability (NCI-H1437; first compound 0.3162 µM) was 0.206. For the same compound, the relative viability (NCI-H1437; first compound 1 µM) was 0.172, the relative viability (NCI-H1975; first compound 0.01 µM) was 0.309 and the relative viability (NCI-H1975; first compound 0.03162 µM) was 0.27. It also gave a relative viability (NCI-H1975; first compound 0.1 µM) of 0.254, a relative viability (NCI-H1975; first compound 0.3162 µM) of 0.221 and a relative viability (NCI-H1975; first compound 1 µM) of 0.198. For the same compound, the relative viability (NCI-H1755; first compound 0.01 µM) was 0.48, the relative viability (NCI-H1755; first compound 0.03162 µM) was 0.441 and the relative viability (NCI-H1755; first compound 0.1 µM) was 0.401. For the same compound, the relative viability (NCI-H1755; first compound 0.3162 µM) was 0.36, the relative viability (NCI-H1755; first compound 1 µM) was 0.277 and the relative viability (NCI-H441; first compound 0.01 µM) was 0.267. The relative viability (NCI-H441; first compound 0.03162 µM) was 0.288, the relative viability (NCI-H441; first compound 0.1 µM) was 0.294 and the relative viability (NCI-H441; first compound 0.3162 µM) was 0.275. It also gave a relative viability (NCI-H441; first compound 1 µM) of 0.271, a relative viability (NCI-H358; first compound 0.01 µM) of 0.23 and a relative viability (NCI-H358; first compound 0.03162 µM) of 0.188. The relative viability (NCI-H358; first compound 0.1 µM) was 0.19, the relative viability (NCI-H358; first compound 0.3162 µM) was 0.149 and the relative viability (NCI-H358; first compound 1 µM) was 0.128. For the same compound, the relative viability (EKVX; first compound 0.01 µM) was 0.394, the relative viability (EKVX; first compound 0.03162 µM) was 0.346 and the relative viability (EKVX; first compound 0.1 µM) was 0.248. It also gave a relative viability (EKVX; first compound 0.3162 µM) of 0.208, a relative viability (EKVX; first compound 1 µM) of 0.152 and a relative viability (NCI-H2085; first compound 0.01 µM) of 0.932. For the same compound, the relative viability (NCI-H2085; first compound 0.03162 µM) was 0.918, the relative viability (NCI-H2085; first compound 0.1 µM) was 1 and the relative viability (NCI-H2085; first compound 0.3162 µM) was 0.795. The relative viability (NCI-H2085; first compound 1 µM) was 0.673.
